Data set [1] in a line: LD50 of Selenium Compounds. Conditions: mouse, in vivo, ip; intraperitoneal route, BDF1 male mice. As for the experimental part: Our studies were carried out in BDF1 male mice weighing approximately 25 grams. All solutions were freshly were daily and given by the intraperitoneal route.
The subject of data set [2] is Cisplatin induced nephrotoxicity (blood urea nitrogen). Description: BUN determination in Cisplatin-treated mice, sodium selenite time course (Table 2). Conditions: for number of dead mice: fourth day. In kind it is in vivo, BDF1 mice. As to the method: (§1) BUN of the mice which have been administered a platinum complex increases due to the platinum poisoning in the kidney. […] The method of negating platinum toxicity of the present invention will be illustrated in more detail by way of Examples later.
(§2) Sodium selenite was administered to the peritoneal cavities of the mice at a dosage of 6.3 mg/kg. […] BUN of the mice was determined on the fourth day from the date of the administration. […] BUN of these control groups was also determined.

Data set [3] shares this test system. Description: BUN determination in Cisplatin-treated mice, sodium selenite time course (Table 1). In kind it is in vivo, BDF1 mice. As for the experimental part:
as §1, §2
*^1 Average BUN value of mice which was determined on the fourth day
*^3 The figure in parentheses means the number of dead mice.

For data set [4] the test system is unchanged. Description: BUN determination in Cisplatin-treated mice, sodium selenite dose series (Table 3). It is filed as in vivo, BDF1 mice. As for the experimental part:
as §1
BUN of the mice was dertermined on the fourth day from the date of administration and on the eleventh day from the date of the administration. […] BUN of these control groups was also determined.

Data set [5] relates to nephrotoxic effects of Cisplatin. Conditions: female rats; 750 mg/kg intraperitoneally or 100 mg/kg intravenously; cited from earlier work.
For another data set, the system named is cadmium toxicity. The conditions noted are these: in vivo; cited from earlier work.
[6] abbreviates: sodium selenite 6.3 mg/kg i.p. 3 hours before Cisplatin 14 mg/kg i.p.
Setting [7] is: sodium selenite 6.3 mg/kg i.p. 4 hours before Cisplatin 14 mg/kg i.p.
Setting [8] is: sodium selenite 6.3 mg/kg i.p. 6 hours before Cisplatin 14 mg/kg i.p.
Where [9] appears, read: sodium selenite 6.3 mg/kg i.p. simultaneously with Cisplatin 14 mg/kg i.p.
Where [10] appears, read: sodium selenite 6.3 mg/kg i.p. 2 hours before Cisplatin 14 mg/kg i.p.
Setting [11] is: sodium selenite 1 mg/kg i.p. 2 hours before Cisplatin 14 mg/kg i.p.
The mark [12] stands for this setting: sodium selenite 2 mg/kg i.p. 2 hours before Cisplatin 14 mg/kg i.p.
Setting [13] is: sodium selenite 4 mg/kg i.p. 2 hours before Cisplatin 14 mg/kg i.p.
The mark [14] stands for this setting: sodium selenite 6 mg/kg i.p. 2 hours before Cisplatin 14 mg/kg i.p.
Where [15] appears, read: sodium selenite 8 mg/kg i.p. 2 hours before Cisplatin 14 mg/kg i.p.

In data set [1], `O=[Se](O)O` [Sodium selenite, sodium selenite] registered an LD50 of 3.25 to 3.5 mg/kg. Also, the “number of dead mice” value came out at 1 in data set [2] (setting [6]); 1 in data set [2] (setting [7]); 1 in data set [2] (setting [8]); 1 in data set [2] (setting [9]); 2 in data set [3] (fourth day, sodium selenite 6.3 mg/kg i.p. 2 hours before Cisplatin 14 mg/kg i.p.); 1 in data set [4] (eleventh day, sodium selenite 2 mg/kg i.p. 2 hours before Cisplatin 14 mg/kg i.p.). Also, the “number of dead mice” value in data set [4] (eleventh day, sodium selenite 4 mg/kg i.p. 2 hours before Cisplatin 14 mg/kg i.p.) was found to be 2; in data set [4] (eleventh day, sodium selenite 6 mg/kg i.p. 2 hours before Cisplatin 14 mg/kg i.p.), 1; in data set [4] (eleventh day, sodium selenite 8 mg/kg i.p. 2 hours before Cisplatin 14 mg/kg i.p.) it was 1; in data set [4] (fourth day, sodium selenite 4 mg/kg i.p. 2 hours before Cisplatin 14 mg/kg i.p.), 1; in data set [4] (fourth day, sodium selenite 8 mg/kg i.p. 2 hours before Cisplatin 14 mg/kg i.p.), 1. Moreover, the “BUN (≥30) on the fourth day, mice” value in data set [2] (sodium selenite 6.3 mg/kg i.p. 1 hour before Cisplatin 14 mg/kg i.p.) is 3/5; in data set [2] (setting [10]), 1/5; in data set [2] (setting [6]) it was 1/4; in data set [2] (setting [7]) it was 2/4; in data set [2] (setting [8]), 2/4; in data set [2] (setting [9]) it was 2/4. In addition, the “BUN (≥30) on the fourth day, mice” value is recorded as 5/5 in data set [3] (sodium selenite 6.3 mg/kg i.p. 1 hour after Cisplatin 14 mg/kg i.p.); 1/3 in data set [3] (setting [10]); 4/5 in data set [3] (setting [7]); 2/5 in data set [3] (setting [9]); 0/5 in data set [3] (sodium selenite 6.3 mg/kg only, i.p.); 3/5 in data set [4] (setting [11]). In addition, the “BUN (≥30) on the fourth day, mice” value is given as 1/5 in data set [4] (setting [12]), 1/4 in data set [4] (setting [13]), 1/5 in data set [4] (setting [14]) and 1/4 in data set [4] (setting [15]). For the same compound, the “BUN (≥30) on the eleventh day, mice” value in data set [4] (setting [11]) was 1/5; in data set [4] (setting [12]), 0/4; in data set [4] (setting [13]), 0/3; in data set [4] (setting [14]), 0/4; in data set [4] (setting [15]), 0/4.
In turn, `O=[Se](=O)(O)O` [sodium selenate] had an LD50 in data set [1] of 5.25 to 5.75 mg/kg.
For `CCN(CC)C(=S)[S-].[Na+]` [sodium diethyldithiocarbamate], the “nephrotoxic effects of Cisplatin” value in data set [5] is reported as “effectively inhibited”.
On to `[Se]` [selenium], for which the “cadmium induced testicular damage” value in the data set on cadmium toxicity is “prevents”.
In data set [1], `N[C@@H](C[Se][Se]C[C@H](N)C(=O)O)C(=O)O` [selenocystine] yielded an LD50 of 4 mg/kg.

Source of the values: patent US4536571A, “Selenium-containing platinum compound” (priority 1983, dated 1985).
